Data from US20090226367A1, “COMPOSITIONS COMPRISING AN ANTI-CA125 ANTIBODY AND A CYTOTOXIC COMPOUND AND THEIR USE FOR THE TREATMENT OF CANCER” (priority 2005, published 2009).

What was measured:
[1] = tested on: OVCAR-3 subcutaneous tumors; assay: subcutaneous OVCAR-3 xenograft model, tumor growth; type: in vivo, NCr nu/nu mice; details: for Tumor Regression (number of animals): groups of 8 mice
Protocol: Model of Human Cancer: A subcutaneous OVCAR-3 xenograft model was used.
Animals: Female NCr nu/nu (“nude”) mice (Taconic Farms, Germantown, N.Y.) 6-7 weeks old were used for all studies. All animals were housed in sterile micro-isolators, and were given autoclaved food and water ad libitum.
OVCAR-3 cells were serially propagated in vivo 3 times within the peritoneal cavities of NCr nu/nu mice, followed by subcutaneous implantation in the flank of the mice. […] Mice were injected with 0.2 ml volume of the cell suspension for a final dose of 3×10^6 cells. Beginning approximately 10 days post-implantation, palpable tumors were measured with electronic calipers (Fowler Instruments, Newton, Mass.) across two perpendicular dimensions. Mice were randomly sorted into groups of eight based on tumor volume. […] Tumor measurements and observations were recorded twice a week. Tumor volume was calculated using the standard formula (Length×Width^2)×0.5.
Control groups consisted of mice injected with 0.9% sodium chloride alone. […] Tumors were measured two times per week. Mice were sacrificed when the tumor volume was greater than 10% of their body weight.
Tumor volumes were compared by Mann-Whitney analysis using Prizm software (GraphPad Software, Inc.). Regression was defined as beginning when a tumor reached <50% of its starting volume and ending when the tumor reached >50% of its initial volume. Partial regression (PR) was defined as when a tumor decreased by 50% or more in volume for at least 7 days, and then later regrew. Complete regression (CR) was defined as when a tumor disappeared for at least 7 days.

[2] = nude mice; cited from earlier work
[3] = paclitaxel 10 mg/kg weekly for three weeks (q3d7)

Compound: CC(=O)O[C@H]1C(=O)[C@@]2(C)[C@H]([C@H](OC(=O)c3ccccc3)[C@]3(O)C[C@H](OC(=O)[C@H](O)[C@@H](NC(=O)c4ccccc4)c4ccccc4)C(C)=C1C3(C)C)[C@]1(OC(C)=O)CO[C@@H]1C[C@@H]2O [Paclitaxel, paclitaxel]
- % T/C ([1]; paclitaxel 10 mg/kg single dose (day 0), day 40, relative to saline control): 58%
- Tumor Regression (number of animals) ([1]; paclitaxel 10 mg/kg single dose (day 0)): no animals had observable regression of tumors
- Duration (days) of tumor regression [1, 3]: 14 days
- PR (partial regression, number of animals) [1, 3]: 1
- % T/C ([1]; paclitaxel 10 mg/kg weekly for three weeks (q3d7), day 40): 29%
- Tumor Regression (number of animals) [1, 3]: 1
- animals demonstrating regression of tumors ([1]; three weekly treatments with 10 mg/kg paclitaxel): 10%
- MTD [2]: > 30 mg/kg
